Data set [1] concerns formalin-evoked pain behavior. The data set can be described thus: Formalin-evoked pain behavior (paw licking, early and late phase) in mice. In kind it is in vivo, male Swiss mice. Conditions: for early phase of formalin-evoked pain behavior / late phase of formalin-evoked pain behavior: drug injected in the paw (i.pl.) together with formalin; for early phase of formalin-evoked pain behavior: 0-15 min; for late phase of formalin-evoked pain behavior: 15-30 min; for formalin-evoked nociceptive response / pain behavior (whole testing period): i.pl., 50 μg; for blockade of the antinociceptive effects of anandamide plus PEA (0.1 μg each): antagonist 0.1 mg per kg i.v., prior administration; for reversal of PEA-induced analgesia: prior administration of antagonist, PEA 50 μg i.pl.; for reversal of the antinociceptive effects of anandamide, WIN-55212-2 and HU-210: prior systemic administration of antagonist. As to the method:
For instance, injection of dilute formalin in the hind-paws of freely moving rodents evokes a pain behavior consisting of two temporally distinct phases of licking and flexing of the injected limb. An early phase involving activation of primary sensory fibers begins immediately after formalin administration, reaches a peak within 5 min, and rapidly declines. Following an interval of 10-15 min, a second phase of sustained pain behavior appears, in which sensory fiber activity is accompanied by local inflammation and central sensitization.
Saline (10 μl) containing 5% formalin and 10% DMSO was injected subcutaneously in the hind-paws of male Swiss mice (20-25 g, Nossan, Italy). The duration of paw licking was monitored by an observer blind to the experimental treatment for periods of 0-15 min (early phase) and 15-30 min (late phase) after formalin administration. For the experiment in FIG. 4, pain behavior was monitored for 5 min periods during a 30 min period following formalin injection.

Data set [2] deals with inflammatory edemas in the hind paws. The experiment in a line: Formalin-induced inflammatory paw edema (plethysmometer). Format: in vivo, Swiss mice. Conditions: after injection of formalin plus PEA (50 μg per paw); six mice; formalin alone 0.37±0.006, control 0.18±0.003.
Data set [3] has as its system nerve conduction, blinking reflex of the cornea. The data set can be described thus: Rabbit corneal reflex test (local anaesthetic activity). In kind it is in vivo, male New Zealand rabbits. Conditions: aqueous 2% solution with 30% DMSO into the conjunctival sac. As to the method: Local anaesthetic activity was evaluated in male New Zealand rabbits (2. 4-2.8 kg, Morini, Italy) by measuring the number of stimuli to the cornea, delivered with a Frey's horse-hair, necessary to produce the blinking reflex. Aqueous 2% solutions of PEA or lidocaine (a standard local anaesthetic) containing 30% DMSO were applied into the conjuctival sac.

Data set [4] concerns behavioral response to acute thermal stimuli. The data set can be described thus: Hot-plate test (time delays to escape jumping, 55.5 C) after intracerebroventricular administration. Format: in vivo, mice. Conditions: for hot-plate latencies: 10 μg (10 μg each for AEA/PEA), n = 6. On the technique in general: Hot-plate and tail-flick tests time the reaction to a heat stimulus.

The conditions of data set [5]: rats, 10 min after i.pl. injection.
The mark [6] stands for this setting: 5 min after i.c.v. administration.
Setting [7] is: 10 min after i.c.v. administration.
Setting [8] is: 15 min after i.c.v. administration.
[9] abbreviates: 20 min after i.c.v. administration.
The mark [10] stands for this setting: 30 min after i.c.v. administration.
Setting [11] is: 40 min after i.c.v. administration.
The mark [12] stands for this setting: 60 min after i.c.v. administration.
The mark [13] stands for this setting: antagonist alone, systemic administration, 0.1 mg per kg i.v.

Entries after “also recorded” stand apart in the source; their conditions may differ. Counter-ions that a name gives are not always drawn.

On to `CCCCCCCCCCCCCCCC(=O)NCCO` [PEA, palmitylethanolamide], for which, in data set [1], the “early phase of formalin-evoked pain behavior” value is reported as “inhibited”. Also, the “late phase of formalin-evoked pain behavior” value in data set [1] is “inhibited”. The “antinociceptive potency, local (i.pl.) compared with systemic (i.v. or i.p.) administration” value in data set [1] (i.pl. vs i.v. or i.p.) is “more potent when administered locally”. In data set [1], the “formalin-evoked nociceptive response / pain behavior (whole testing period)” value is reported as “inhibits”. Further, the paw volume in data set [2] stood at 0.35 ± 0.006 mL. Moreover, the “nerve conduction in the rabbit corneal reflex test (local anesthetic activity)” value in data set [3] was “did not affect”. Besides, the “hot-plate latencies” value is recorded as 22 ± 3 s in data set [4] (setting [6]); 23 ± 3 s in data set [4] (setting [7]); 21 ± 2 s in data set [4] (setting [8]); 25 ± 4 s in data set [4] (setting [9]); 26 ± 5 s in data set [4] (setting [10]); 22 ± 4 s in data set [4] (setting [11]). The “hot-plate latencies” value in data set [4] (setting [12]) was found to be 24 ± 2 s. Further, the “enhancement of the inhibitory activity of anandamide in the hot-plate test” value in data set [4] (both injected in the cerebral ventricles) was “did not enhance”. The “behavioral responses to acute thermal stimuli, hot-plate test” value in data set [4] (injection in the cerebral ventricles) is “did not affect”.
In the case of `CCCCC/C=C\C/C=C\C/C=C\C/C=C\CCCC(=O)N[C@H](C)CO` [methanandamide], in data set [1], the “formalin-evoked nociceptive response / pain behavior (whole testing period)” value is given as “inhibited pain behavior throughout the testing period”.
For the compound `Cc1c(C(=O)NN2CCCCC2)nn(-c2ccc(Cl)cc2Cl)c1-c1ccc(Cl)cc1` [SR141716A, [N-(piperidin-1-yl)-5-(4-chlorophenyl)-1-(2,4-dichlorophenyl)-4-methyl-1H-pyrazole-3-carboxamide. HCl]], in data set [1], the “blockade of the antinociceptive effects of anandamide plus PEA (0.1 μg each)” value is “prevent” and the “reversal of PEA-induced analgesia” value is on record as “ineffective”. For the same compound, the “reversal of the antinociceptive effects of anandamide, WIN-55212-2 and HU-210” value in data set [1] (0.1 mg per kg i.v.) is reported as “reversed”.
For `Cc1c(C(=O)c2cccc3ccccc23)c2cccc3c2n1[C@H](CN1CCOCC1)CO3` [WIN-55212-2], in data set [1], the “early phase of formalin-evoked pain behavior” value is reported as “blocked” and the “late phase of formalin-evoked pain behavior” value is recorded as “blocked”.
Consider `CCCCCCC(C)(C)c1cc(O)c2c(c1)OC(C)(C)[C@@H]1CC=C(CO)C[C@@H]21` [HU-210], for which, in data set [1], the “early phase of formalin-evoked pain behavior” value is recorded as “blocked” and the “late phase of formalin-evoked pain behavior” value is “blocked”.
Turning to `CCCCC/C=C\C/C=C\C/C=C\C/C=C\CCCC(=O)NCCO` [[^3H]anandamide], in data set [5], the radioactivity in cerebellum is 165±67 dpm per g, the radioactivity in forebrain is listed as 79±19 dpm per g and the “radioactivity in spinal cord” value worked out at 90±48 dpm per g. The “radioactivity in injected paw” value in data set [5] (mean±s.e.m.) came to 6648±820 dpm per g. Further, the “recovered [3H]anandamide remaining associated with the injected paw” value in data set [5] (three experiments) stood at 94%.
In the case of “N-[(1S)-endo-1,3,3-trimethyl bicyclo [2.2.1]heptan-2-yl]-5-(4-chloro-3-methylphenyl)-1-(4-methylbenzyl)-pyrazole-3-carboxamide [SR144528]”, in data set [1], the “blockade of the antinociceptive effects of anandamide plus PEA (0.1 μg each)” value is on record as “prevent” and the “reversal of PEA-induced analgesia” value is “completely reversed”. Besides, in data set [1] (setting [13]), the “intrinsic effect of antagonist on early phase of formalin-evoked pain behavior” value is “selective enhancement; also recorded: selectively enhanced” and the “intrinsic effect of antagonist on late phase of formalin-evoked pain behavior” value is reported as “not”. Also, the “reversal of the antinociceptive effects of anandamide, WIN-55212-2 and HU-210” value in data set [1] (0.1 mg per kg i.v.) was “not”.
For the compound `CCCCC/C=C\C/C=C\C/C=C\C/C=C\CCCC(=O)NCCO` [anandamide, arachidonylethanolamide], in data set [1], the “early phase of formalin-evoked pain behavior” value was “completely blocked”. The “late phase of formalin-evoked pain behavior” value in data set [1] is recorded as “lack of effect; also recorded: no effect”. Further, the “potency in preventing formalin-evoked pain behavior, i.pl. relative to i.v.” value in data set [1] (i.pl. vs i.v.) was found to be 100 times. The “formalin-evoked nociceptive response / pain behavior (whole testing period)” value in data set [1] was “inhibits”. For the same compound, in data set [1] (intraperitoneal (i.p.)), the “effect on formalin-evoked pain behavior” value is given as “no effect”. For the same compound, the “half-maximal inhibitory dose (ID50), formalin-evoked pain behavior” value in data set [1] (intraplantar (i.pl.)) amounted to 0.1 mg per kg; in data set [1] (intravenous (i.v.)) it was 10 mg per kg. In addition, the “hot-plate latencies” value in data set [4] (setting [6]) worked out at 24 ± 4 s; in data set [4] (setting [7]), 23 ± 3 s; in data set [4] (setting [8]), 29 ± 3 s; in data set [4] (setting [9]) it was 35 ± 2 s; in data set [4] (setting [10]) it was 40 ± 3 s; in data set [4] (setting [11]), 30 ± 3 s. The “hot-plate latencies” value in data set [4] (setting [12]) was determined as 28 ± 3 s.
`C=CCN1CC[C@]23c4c5ccc(O)c4O[C@H]2C(=O)CC[C@@]3(O)[C@H]1C5` [naloxone]: the “reversal of PEA-induced analgesia” value in data set [1] is “ineffective”.

These data come from patent US6656972B2, “Control of pain with endogenous cannabinoids” (Neurosciences Research Foundation, Inc., priority 1998, dated 2003).
